Laboratory results published in ChEMBL document CHEMBL4038292 (Bioorg Med Chem Lett, 2017).
Active and inactive are the calls of the source. The calls are words filed in the database; no cut-off is given here.

How the values were obtained:
[1] = Effect on human sperm motility at 10^-5 mol/L measured at 30 mins post dose by Makler counting chamber method (reference value: 66.9 +/- 4.6%); assay type: ADME, cell-based; conditions: 0.5 h, 10 µM
[2] = Effect on human sperm motility at 10^-6 mol/L measured at 90 mins post dose by Makler counting chamber method (reference value: 62.1 +/- 5.7%); assay type: ADME, cell-based; conditions: 1.5 h, 1 µM
[3] = Effect on human sperm motility at 10^-6 mol/L measured at 10 mins post dose by Makler counting chamber method (reference value: 69 +/- 4.7%); assay type: ADME, cell-based; conditions: 1 µM
[4] = system: Mus musculus; assay: Antinociceptive activity in mouse model of thermal-induced nociception assessed as increase in latency to tail withdrawal at 5 mg/kg, sc measured up to 50 mins by tail flick test; assay type: functional, organism-based
[5] = Effect on human sperm motility at 10^-7 mol/L measured at 10 mins post dose by Makler counting chamber method (reference value: 69 +/- 4.7%); assay type: ADME, cell-based; conditions: 0.1 µM
[6] = Effect on human sperm motility at 10^-7 mol/L measured at 90 mins post dose by Makler counting chamber method (reference value: 62.1 +/- 5.7%); assay type: ADME, cell-based; conditions: 1.5 h, 0.1 µM
[7] = Effect on human sperm motility at 10^-6 mol/L measured immediately post dose by Makler counting chamber method (reference value: 70 +/- 4.2%); assay type: ADME, cell-based; conditions: 1 µM
[8] = Effect on human sperm motility at 10^-5 mol/L measured at 10 mins post dose by Makler counting chamber method (reference value: 69 +/- 4.7%); assay type: ADME, cell-based; conditions: 10 µM
[9] = Effect on human sperm motility at 10^-5 mol/L measured at 60 mins post dose by Makler counting chamber method (reference value: 64.8 +/- 6.6%); assay type: ADME, cell-based; conditions: 1 h, 10 µM
[10] = Effect on human sperm motility at 10^-5 mol/L measured immediately post dose by Makler counting chamber method (reference value: 70 +/- 4.2%); assay type: ADME, cell-based; conditions: 10 µM
[11] = Effect on human sperm motility at 10^-5 mol/L measured at 90 mins post dose by Makler counting chamber method (reference value: 62.1 +/- 5.7%); assay type: ADME, cell-based; conditions: 1.5 h, 10 µM
[12] = Effect on human sperm motility at 10^-6 mol/L measured at 30 mins post dose by Makler counting chamber method (reference value: 66.9 +/- 4.6%); assay type: ADME, cell-based; conditions: 0.5 h, 1 µM
[13] = Effect on human sperm motility at 10^-7 mol/L measured at 30 mins post dose by Makler counting chamber method (reference value: 66.9 +/- 4.6%); assay type: ADME, cell-based; conditions: 0.5 h, 0.1 µM
[14] = Effect on human sperm motility at 10^-7 mol/L measured at 60 mins post dose by Makler counting chamber method (reference value: 64.8 +/- 6.6%); assay type: ADME, cell-based; conditions: 1 h, 0.1 µM
[15] = Effect on human sperm motility at 10^-6 mol/L measured at 60 mins post dose by Makler counting chamber method (reference value: 64.8 +/- 6.6%); assay type: ADME, cell-based; conditions: 1 h, 1 µM
[16] = Effect on human sperm motility at 10^-7 mol/L measured immediately post dose by Makler counting chamber method (reference value: 70 +/- 4.2%); assay type: ADME, cell-based; conditions: 0.1 µM
[17] = molecular target: Mu-type opioid receptor (Rattus norvegicus, UniProt P33535); assay: Displacement of [3H]DAMGO from mu-opioid receptor in Wistar rat brain membrane after 1 hr by microbeta scintillation counting method; assay type: cell membranes
Mu-type opioid receptor, sequence (P33535 whole entry): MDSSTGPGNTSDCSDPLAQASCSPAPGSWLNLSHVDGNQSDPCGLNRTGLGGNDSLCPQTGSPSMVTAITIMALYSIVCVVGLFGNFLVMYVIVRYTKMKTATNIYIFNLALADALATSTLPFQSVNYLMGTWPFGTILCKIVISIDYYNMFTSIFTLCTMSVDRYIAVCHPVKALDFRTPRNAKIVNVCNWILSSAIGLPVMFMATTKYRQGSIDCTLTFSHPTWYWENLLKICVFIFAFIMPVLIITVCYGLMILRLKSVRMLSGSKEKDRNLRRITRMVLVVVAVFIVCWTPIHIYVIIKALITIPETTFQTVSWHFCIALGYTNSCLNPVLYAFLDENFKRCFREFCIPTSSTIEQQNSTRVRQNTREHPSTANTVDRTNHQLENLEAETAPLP

[18] = species on record: Rattus norvegicus; assay: Selectivity ratio of Ki for displacement of [3H]DPDPE from delta-opioid receptor in Wistar rat membrane to Ki for displacement of [3H]DAMGO from mu-opioid receptor in Wistar rat brain membrane; assay type: cell membranes
[19] = system: Mus musculus; assay: Antinociceptive activity in mouse model of thermal-induced nociception assessed as increase in latency to tail withdrawal at 5 mg/kg, sc measured up to 90 mins by tail flick test; assay type: functional, organism-based
[20] = Half life in Kunming mouse plasma at 500 uM by RP-HPLC method; assay type: ADME, cell-free
[21] = molecular target: Delta-type opioid receptor (Rattus norvegicus, UniProt P33533); assay: Displacement of [3H]DPDPE from delta-opioid receptor in Wistar rat brain membrane after 3 hrs by microbeta scintillation counting method; assay type: cell membranes
Delta-type opioid receptor, sequence (P33533 whole entry): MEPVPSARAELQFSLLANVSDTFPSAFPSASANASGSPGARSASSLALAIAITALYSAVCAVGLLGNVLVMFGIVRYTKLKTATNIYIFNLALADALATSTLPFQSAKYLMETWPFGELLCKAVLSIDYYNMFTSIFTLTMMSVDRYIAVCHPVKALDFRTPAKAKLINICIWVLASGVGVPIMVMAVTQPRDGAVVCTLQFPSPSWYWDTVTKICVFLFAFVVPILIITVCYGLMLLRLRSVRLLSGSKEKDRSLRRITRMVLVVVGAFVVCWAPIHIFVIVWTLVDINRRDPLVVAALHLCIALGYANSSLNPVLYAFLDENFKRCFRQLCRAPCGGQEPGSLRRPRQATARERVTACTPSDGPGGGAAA

[22] = system: Mus musculus; assay: Antinociceptive activity in mouse model of thermal-induced nociception assessed as increase in latency to tail withdrawal at 10 nmol/kg, icv measured 10 to 80 mins post dose by tail flick test relative to control; assay type: functional
[23] = system: Mus musculus; assay: Antinociceptive activity in mouse model of thermal-induced nociception assessed as increase in latency to tail withdrawal at 10 mg/kg, sc measured up to 90 mins by tail flick test; assay type: functional, organism-based
[24] = system: Mus musculus; assay: Antinociceptive activity in mouse model of thermal-induced nociception assessed as increase in latency to tail withdrawal at 2.5 nmol/kg, icv measured up to 60 mins by tail flick test; assay type: functional
[25] = Half life in Kunming mouse brain homogenate at 500 uM by RP-HPLC method; assay type: ADME, tissue-based
[26] = system: Mus musculus; assay: Antinociceptive activity in mouse model of thermal-induced nociception assessed as increase in latency to tail withdrawal at 10 nmol/kg, icv measured up to 50 mins by tail flick test; assay type: functional
[27] = system: Mus musculus; assay: Antinociceptive activity in mouse model of thermal-induced nociception assessed as increase in latency to tail withdrawal at 10 nmol/kg, icv measured up to 60 mins by tail flick test; assay type: functional

Work on `CN1CC[C@]23c4c5ccc(O)c4O[C@H]2[C@@H](O)C=C[C@H]3[C@H]1C5` [MORPHINE] yielded an Activity [1] of 58.8%, an Activity [2] of 59.3% and an Activity [3] of 62.7%. The Activity [4] was “Active”, the Activity [5] was 70.8% and the Activity [6] was 57.7%. For the same molecule, the Activity [7] was 65.6%, the Activity [8] was 60.2% and the Activity [9] was 57.6%. For the same molecule, the Activity [10] was 62.7%, the Activity [11] was 55.7% and the Activity [12] was 63%. For the same molecule, the Activity [13] was 67%, the Activity [14] was 69% and the Activity [15] was 60.7%. For the same molecule, the Activity [16] was 69.4%.

`C[C@@H](NC(=O)[C@H](Cc1ccc(O)cc1)NC(=N)N)C(=O)NCC(=O)N[C@@H](Cc1ccccc1)C(N)=O` gave an Activity [1] of 59.1%, a Ki [17] of 0.42 nM and an Activity [2] of 57.3%. It also gave a Ratio Ki [18] of 2000, an Activity [3] of 60.6% and an Activity [5] of 68.5%. For the same molecule, the Activity [6] was 53.2%, the Activity [7] was 64.5% and the Activity [19] was “Active”. It also gave an Activity [8] of 60.3%, an Activity [9] of 59% and an Activity [10] of 62.1%. The half-life at 500 µM [20] was 3.87 h, the Ki [21] was 840 nM and the MPE [22] was 90 - 100%. The Activity [11] was 56.5%, the Activity [12] was 59.6% and the Activity [23] was “Active”. For the same molecule, the Activity [13] was 62.8%, the Activity [24] was “Active” and the half-life at 500 µM [25] was 6.07 h. For the same molecule, the Activity [14] was 58.6%, the Activity [15] was 58% and the Activity [16] was 66.7%.

Work on `C[C@@H](NC(=O)[C@H](Cc1ccc(O)cc1)NC(=N)N)C(=O)NCC(=O)N[C@@H](Cc1ccc(Cl)cc1)C(N)=O` yielded an Activity [1] of 56.1%, a Ki [17] of 0.35 nM and an Activity [2] of 78.3%. For the same molecule, the Ratio Ki [18] was 288, the Activity [3] was 64.6% and the Activity [5] was 58.8%. The Activity [6] was 53.2%, the Activity [7] was 69.5% and the Activity [19] was “Active”. For the same molecule, the Activity [8] was 59.3%, the Activity [9] was 55.3% and the Activity [10] was 60.1%. The half-life at 500 µM [20] was 3.91 h, the Ki [21] was 101 nM and the MPE [22] was 90 - 100%. For the same molecule, the Activity [11] was 53.5%, the Activity [12] was 64.6% and the Activity [23] was “Active”. The Activity [13] was 59%, the Activity [24] was “Active” and the half-life at 500 µM [25] was 6.52 h. For the same molecule, the Activity [14] was 55.2%, the Activity [15] was 72% and the Activity [16] was 62.7%.

With `C[C@@H](NC(=O)[C@@H](N)Cc1ccc(O)cc1)C(=O)NCC(=O)N[C@@H](Cc1ccccc1)C(N)=O` the Activity [26] was “Active”, the Ki [17] was 2.11 nM and the Ratio Ki [18] was 1800. For the same molecule, the Activity [4] was “Active”, the half-life at 500 µM [20] was 4.38 h and the Ki [21] was 3800 nM. It also gave a half-life at 500 µM [25] of 4.33 h.

Work on `N=C(N)N[C@@H](Cc1ccc(O)cc1)C(=O)N1CCC[C@@H]1C(=O)NCC(=O)N[C@@H](Cc1ccccc1)C(N)=O` yielded a Ki [17] of 247 nM, a Ratio Ki [18] of 18.4 and a half-life at 500 µM [20] of 3.68 h. It also gave a Ki [21] of 4550 nM and a half-life at 500 µM [25] of 4.94 h.

In the case of `C[C@@H](NC(=O)[C@@H](N)Cc1ccc(O)cc1)C(=O)NCC(=O)N[C@@H](Cc1ccc(Cl)cc1)C(N)=O`, the Activity [26] is reported as “Active”, the Ki [17] is reported as 1.24 nM and the Activity [4] is reported as “Active”. The half-life at 500 µM [20] was 3.99 h, the Ki [21] was over 1000 nM and the half-life at 500 µM [25] was 5.29 h.

For `NC(=O)[C@H](Cc1ccccc1)NC(=O)[C@H](Cc1c[nH]c2ccccc12)NC(=O)[C@@H]1CCCN1C(=O)[C@@H](N)Cc1ccc(O)cc1` [ENDOMORPHIN-1], the Activity [27] was “Active”, the half-life at 500 µM [20] was 0.101 h and the half-life at 500 µM [25] was 0.392 h.
